# Measurements as given in patent publication US11052063B2, “Methods of reducing RLP-C” (Amarin Pharmaceuticals Ireland Limited, priority 2014, dated 2021).
# System: Serum RLP-C
# Experiment: 12-week placebo-controlled study (ANCHOR), serum RLP-C by immunoseparation assay, statin-treated patients with fasting TG ≥200 and <500 mg/dl
# Format: in vivo, human
# Settings: for Median Change from Baseline in RLP-C vs. Placebo: Hodges-Lehmann estimate; for Median Change from Baseline in RLP-C vs. Placebo / RLP-C Concentration End of Treatment: week 12; for RLP-C Concentration Change: median change from baseline to week 12; for RLP-C Concentration Baseline / RLP-C Concentration End of Treatment: median; for RLP-C Concentration Baseline: before treatment
# Experimental: A multi-center, placebo-controlled, randomized, double-blind, 12-week study was performed to evaluate the efficacy and safety of >96% E-EPA in patients with fasting triglyceride levels≥200 mg/dl and <500 mg/dl despite statin therapy (the mean of two qualifying entry values needed to be ≥185 mg/dl and at least one of the values needed to be ≥200 mg/dl). The primary objective of the study was to determine the efficacy of >96%, by weight of all fatty acids present, ethyl-EPA (“AMR101”) 2 g daily and 4 g daily, compared to placebo, in lowering fasting TG levels in patients with high risk for cardiovascular disease and with fasting TG levels≥200 mg/dl and <500 mg/dl, despite treatment to LDL-C goal on statin therapy. The population for this study was men and women>18 years of age with a body mass index≤45 kg/m^2 with fasting TG levels greater than or equal to 200 mg/dl and less than 500 mg/dl and on a stable does of statin therapy (with or without ezetimibe). The statin was atorvostatin, rosuvastatin or simvastatin. The dose of statin must have been stable for ≥4 weeks prior to the LDL-C/TG baseline qualifying measurement for randomization. The statin dose was optimized such that the patients are at their LDL-C goal at the LDL-C/TG baseline qualifying measurements. The same statin at the same dose was continued until the study ended. Approximately 702 patients were randomized at approximately 80 centers in the U.S. The study was a 18- to 20-week, Phase 3, multi-center study consisting of 2 study periods: (1) A 6- to 8-week screening period that included a diet and lifestyle stabilization, a non-statin lipid-altering treatment washout, and an LDL-C and TG qualifying period and (2) A 12-week, double-blind, randomized, placebo-controlled treatment period. After confirmation of qualifying fasting LDL-C and TG values, eligible patients entered a 12-week, randomized, double-blind treatment period. At Visit 4 (Week 0), patients were randomly assigned to 1 of the following treatment groups: • >96% E-EPA 2 g daily, • >96% E-EPA 4 g daily, or • Placebo. >96% E-EPA was provided in 1 g liquid-filled, oblong, gelatin capsules. The matching placebo capsule was filled with light liquid paraffin and contained 0 g of >96% E-EPA. >96% E-EPA capsules were to be taken with food (i.e. with or at the end of a meal). During the double-blind treatment period, patients were to take 2 capsules (>96% E-EPA or matching placebo) in the morning and 2 capsules in the evening for a total of 4 capsules per day. • Patients in the >96% E-EPA 2 g/day treatment group received 1 >96% E-EPA 1 g capsule and 1 matching placebo capsule in the morning and in the evening. • Patients in the >96% E-EPA 4 g/day treatment group received 2 >96% E-EPA 1 g capsules in the morning and evening. The primary efficacy variable for the double-blind treatment period was percent change in TG from baseline to Week 12 endpoint. […]
# [1] = 2 g/day, Baseline TG <259 mg/dl
# [2] = 2 g/day, Baseline TG ≥259 mg/dl
# [3] = 2 g/day, Lower Statin Intensity
# [4] = 2 g/day, Medium and Higher Statin Intensity
# [5] = 4 g/day, Baseline TG <259 mg/dl
# [6] = 4 g/day, Baseline TG ≥259 mg/dl
# [7] = 4 g/day, Lower Statin Intensity
# [8] = 4 g/day, Medium and Higher Statin Intensity
smiles,measurement,setting,value
"CC/C=C\C/C=C\C/C=C\C/C=C\C/C=C\CCCC(=O)OCC [AMR101, ethyl-EPA]",RLP-C compared to placebo,"2 g/day treatment group, 12 weeks",reduced RLP-C compared to placebo
same,Median Change from Baseline in RLP-C vs. Placebo,[1],−16.4%
same,RLP-C Concentration Change,[1],−8.1%
same,RLP-C Concentration Baseline,[1],11.5 mg/dL
same,RLP-C Concentration End of Treatment,[1],11.0 mg/dL
same,Median Change from Baseline in RLP-C vs. Placebo,[2],−18.0%
same,RLP-C Concentration Change,[2],−17.4%
same,RLP-C Concentration Baseline,[2],18.0 mg/dL
same,RLP-C Concentration End of Treatment,[2],13.5 mg/dL
same,Median Change from Baseline in RLP-C vs. Placebo,"2 g/day, ITT",−16.7%
same,RLP-C Concentration Change,"2 g/day, ITT",−11.1%
same,RLP-C Concentration Baseline,"2 g/day, ITT",15.0 mg/dL
same,RLP-C Concentration End of Treatment,"2 g/day, ITT",11.0 mg/dL
same,Median Change from Baseline in RLP-C vs. Placebo,[3],2.7%
same,RLP-C Concentration Change,[3],−11.1%
same,RLP-C Concentration Baseline,[3],15.0 mg/dL
same,RLP-C Concentration End of Treatment,[3],11.0 mg/dL
same,Median Change from Baseline in RLP-C vs. Placebo,[4],−17.3%
same,RLP-C Concentration Change,[4],−11.1%
same,RLP-C Concentration Baseline,[4],15.0 mg/dL
same,RLP-C Concentration End of Treatment,[4],11.0 mg/dL
same,median placebo-adjusted reduction in RLP-C,"4 g/day treatment group, 12 weeks, p=0.0001, stated as reduction",25.8%
same,reductions in RLP-C compared to baseline,"4 g/day treatment group, 12 weeks, stated as reduction",24.0%
same,Median Change from Baseline in RLP-C vs. Placebo,[5],−22.2%
same,RLP-C Concentration Change,[5],−16.0%
same,RLP-C Concentration Baseline,[5],11.0 mg/dL
same,RLP-C Concentration End of Treatment,[5],9.0 mg/dL
same,Median Change from Baseline in RLP-C vs. Placebo,[6],−30.6%
same,RLP-C Concentration Change,[6],−31.3%
same,RLP-C Concentration Baseline,[6],17.0 mg/dL
same,RLP-C Concentration End of Treatment,[6],11.0 mg/dL
same,Median Change from Baseline in RLP-C vs. Placebo,"4 g/day, ITT",−25.8%
same,RLP-C Concentration Change,"4 g/day, ITT",−24.0%
same,RLP-C Concentration Baseline,"4 g/day, ITT",13.5 mg/dL
same,RLP-C Concentration End of Treatment,"4 g/day, ITT",10.0 mg/dL
same,Median Change from Baseline in RLP-C vs. Placebo,[7],−11.9%
same,RLP-C Concentration Change,[7],−29.2%
same,RLP-C Concentration Baseline,[7],16.0 mg/dL
same,RLP-C Concentration End of Treatment,[7],15.0 mg/dL
same,Median Change from Baseline in RLP-C vs. Placebo,[8],−26.7%
same,RLP-C Concentration Change,[8],−23.1%
same,RLP-C Concentration Baseline,[8],13.0 mg/dL
same,RLP-C Concentration End of Treatment,[8],10.0 mg/dL
same,RLP-C reductions by statin intensity,subjects on moderate- to high-intensity statin therapy compared to lower-intensity statin therapy,greater RLP-C reductions
